Results from patent US20230391756A1, “NEW COMPOUND” (JANSSEN PHARMACEUTICA NV, priority 2020, published 2023).

Columns and labels:
TNF = test: PBMC assay: TNF cytokine level after LPS stimulation; type: cell-based; details: human PBMCs, 100 ng/ml LPS for 6 hrs, MSD, read-out: TNFα EC50
Method: (§1) Peripheral venous blood was collected from healthy individuals and human peripheral blood mononuclear cells (PBMCs) were isolated from blood by Ficoll-Histopaque (Sigma-Aldrich, A0561) density gradient centrifugation. After isolation, PBMCs were stored in liquid nitrogen for later use. Upon thawing, PBMC cell viability was determined in growth medium (RPMI media supplemented with 10% fetal bovine serum, 1% Pen-Strep and 1% L-glutamine). […] PBMCs were added at a density of 7.5×10^4 cells per well and incubated for 30 min in a 5% CO2 incubator at 37° C. LPS stimulation was performed by addition of 100 ng/ml LPS (final concentration, Invivogen, tlrl-smlps) for 6 hrs followed by collection of cellular supernatant and the analysis of IL-1β (μM) and TNF cytokines levels (μM) via MSD technology according to manufacturers' guidelines (MSD, K151A0H).

[1] = tested on: NLRP3 inflammasome pathway (IL-1β); test: PBMC assay: IL-1β release after LPS stimulation; type: cell-based; details: human PBMCs, 100 ng/ml LPS for 6 hrs, MSD
Method: The activity of a compound according to the present invention can be assessed by in vitro methods.
as §1

SMILES | melting point [°C] | EC50 (TNF) [µM] | IC50 [1] [µM]
CCn1nc(CC(=O)Nc2ccc3nncn3c2)c(=O)c2ccc(Br)cc21 [F-6] | 294.3 | > 20 | 0.102
CCn1nc(CC(=O)Nc2ncc3ncn(C)c3n2)c(=O)c2ccc(C(F)(F)F)cc21 [F-48] | 271 | > 20 | 3.26
CC(C)n1nc(CC(=O)Nc2ccc(=O)n(C)n2)c(=O)c2ccc(C(F)(F)F)cc21 [F-18] | 258.8 | > 20 | 0.88
CCn1nc(CC(=O)Nc2ccc3nncn3c2)c(=O)c2ccc(C(C)(F)F)cc21 [F-68] | 279.8 | > 20 | 0.2
CC(C)n1nc(CC(=O)Nc2ccc3nncn3n2)c(=O)c2ccc(Cl)cc21 [F-30] | 241.6 | 16.4 | 0.224
CC(F)(F)c1ccc2c(=O)c(CC(=O)Nc3ccc4nncn4c3)nn(C3CC3)c2c1 [F-67] | 145.4 | > 20 | 0.22
CCn1nc(CC(=O)Nc2ccc3nncn3n2)c(=O)c2ccc(C(C)(F)F)cc21 [F-70] | 252.9 | 7.84 | 0.147
CC(C)c1ccc2c(=O)c(CC(=O)Nc3ccc4nccn4n3)nn(C3CC3)c2c1 [F-58] | 190.1 | 15.8 | 0.37
CC(C)n1nc(CC(=O)N[C@H]2C[C@@H](C(C)(C)O)C2)c(=O)c2ccc(C(F)(F)F)cc21 [F-10] | 181 | > 20 | 11.6
CCn1nc(CC(=O)Nc2ccc3nncn3n2)c(=O)c2ccc(C3CC3)cc21 [F-141] | 223 | 9.77 | 0.12
O=C(Cc1nn(C2CC2)c2cc(C(F)(F)F)ccc2c1=O)Nc1ccc2nncn2n1 [F-139] | 215.7 | > 20 | 0.21
CCn1nc(CC(=O)N[C@H]2C[C@@](C)(O)C2)c(=O)c2ccc(Cl)cc21 [F-25] | 191.5 | > 20 | 2.14
CC(C)c1ccc2c(=O)c(CC(=O)Nc3ccc4nncn4c3)nn(C(C)C)c2c1 [F-31] | 181.4 | 11.4 | 0.22
Cc1ccc2nc(NC(=O)Cc3nn(C(C)C)c4cc(C(F)(F)F)ccc4c3=O)n(C)c2c1 [F-95] | 217.4 | > 20 | > 20
CC(C)n1nc(CC(=O)Nc2nc3ncccn3n2)c(=O)c2ccc(C(F)(F)F)cc21 [F-114] | 259.7 | > 20 | 0.33
CC(C)n1nc(CC(=O)Nc2nc3ccccc3n2C)c(=O)c2ccc(Br)cc21 [F-100] | 205.6 | > 20 | 18.2
CC(C)n1nc(CC(=O)Nc2ccc(C3CC3)nn2)c(=O)c2ccc(C(F)(F)F)cc21 [F-86] | 185.8 | > 20 | 12.9
CCn1nc(CC(=O)Nc2ccc3nncn3c2)c(=O)c2ccc(C3CCC3)cc21 [F-46] | 113.1 | > 20 | 4.52
CC(F)(F)c1ccc2c(=O)c(CC(=O)Nc3cn4cnnc4cn3)nn(C3CC3)c2c1 [F-108] | 257.9 | > 20 | 0.985
O=C(Cc1nn(C2CC2)c2cc(C(F)(F)F)ccc2c1=O)Nc1ccc2nccn2n1 [F-61] | 216.4 | > 20 | 0.29
CCn1nc(CC(=O)Nc2cn3cnnc3cn2)c(=O)c2ccc(C(F)(F)F)cc21 [F-106] | 280.2 | > 20 | 1.45
CC(C)n1nc(CC(=O)Nc2ccc(=O)n(C)n2)c(=O)c2ccc(Br)cc21 [F-33] | 221.9 | > 20 | 0.433

SMILES | melting point [°C] | EC50 (TNF) [µM] | IC50 [1] [µM]
CC(C)n1nc(CC(=O)Nc2nc3ccccc3n2C)c(=O)c2ccc(C(F)(F)F)cc21 [F-91] | 214.7 | > 20 | > 20
CC(C)n1nc(CC(=O)Nc2ccc3c(c2)[nH]c(=O)n3C)c(=O)c2ccc(C(F)(F)F)cc21 [F-19] | 241.6 | 8.29 | 0.092
CC(C)n1nc(CC(=O)Nc2ccc3cncn3c2)c(=O)c2ccc(C(F)(F)F)cc21 [F-15] | 152.7 | 11 | 0.239
Cc1ncc2n1CCC(NC(=O)Cc1nn(C(C)C)c3cc(C(F)(F)F)ccc3c1=O)C2 (stereo not drawn) [F-51] | 233.4 | > 20 | 2.48
O=C(Cc1nn(C2CC2)c2cc(Br)ccc2c1=O)Nc1cn2cnnc2cn1 [F-113] | 277.2 | > 20 | 0.513
CC(C)n1nc(CC(=O)Nc2nc3ccc(F)cc3n2C)c(=O)c2ccc(C(F)(F)F)cc21 [F-99] | 221.8 | > 20 | > 20
CC(C)n1nc(CC(=O)Nc2nc3ccccc3o2)c(=O)c2ccc(C(F)(F)F)cc21 [F-110] | 187.4 | > 20 | 0.9
CC(C)n1nc(CC(=O)Nc2nc3cc(Cl)ccc3o2)c(=O)c2ccc(Br)cc21 [F-104] | 199 | > 20 | 2.48
CC(C)n1nc(CC(=O)Nc2ccc(I)nn2)c(=O)c2ccc(C(F)(F)F)cc21 [F-85] | 177.9 | > 20 | 15.3
CCC(C)n1nc(CC(=O)Nc2ccc3nncn3c2)c(=O)c2ccc(C(F)(F)F)cc21 (stereo not drawn) [F-49] | 156.4 | > 20 | 3.19
CC(C)n1nc(CC(=O)Nc2cc(Cl)c(=O)n(C(F)F)c2)c(=O)c2ccc(C(F)(F)F)cc21 [F-47] | 233 | > 20 | 3.65
CC(C)n1nc(CC(=O)Nc2nc3ccc(C#N)cc3n2C)c(=O)c2ccc(C(F)(F)F)cc21 [F-92] | 242.9 | > 20 | > 20
CC(C)n1nc(CC(=O)Nc2nc3ccc(F)cc3n2C)c(=O)c2ccc(Br)cc21 [F-96] | 229.8 | > 20 | > 20
CC(C)n1nc(CC(=O)Nc2ccc3nncn3c2)c(=O)c2ccc(Cl)cc21 [F-29] | 292 | > 20 | 0.62
Cc1nnc2cc(NC(=O)Cc3nn(C(C)C)c4cc(C(F)(F)F)ccc4c3=O)ccn12 [F-41] | 216.3 | > 20 | 6.35
CC(C)n1nc(CC(=O)Nc2ccc3nncn3c2)c(=O)c2ccc(C(C)(C)F)cc21 [F-75] | 256.8 | 14.6 | 0.52
CC(C)n1nc(CC(=O)Nc2ccc3nnc(Cl)n3n2)c(=O)c2ccc(C(F)(F)F)cc21 [F-132] | 248.9 | > 20 | 0.892
O=C(Cc1nn(C2CC2)c2cc(Br)ccc2c1=O)Nc1ccc2nncn2c1 [F-71] | 310 | > 20 | 0.105
CCn1nc(CC(=O)Nc2ccc3nncn3n2)c(=O)c2ccc(C3CCC3)cc21 [F-136] | 136.4 | 14.1 | 1.03
CCn1nc(CC(=O)Nc2ccc3nccn3n2)c(=O)c2ccc(C3CC3)cc21 [F-62] | 193.4 | > 20 | 0.275
CC(C)n1nc(CC(=O)Nc2ccc3nncn3c2)c(=O)c2ccc(C(F)(F)F)cc21 [F-20] | 291.3 | > 20 | 0.178
